Experimental data reported in PubChem BioAssay AID1963962 (Molecular Pharmacology Branch, DTP, NCI, 2024).

Tested on: 967376-340-R-J2-PDC multicell spheroid viability
Assay: Anticancer human tumor 967376-340-R-J2-PDC patient-derived colon adenocarcinoma cell line growth inhibition [PI3K]
Settings: for viability, T/C: stronger effect = lower value
In short: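 Three cell types, namely tumor cells, endothelial cells and mesenchymal stem cells, formed each spheroid. Combinations with four PI3K inhibitors were screened at clinically achievable concentrations decreasing by half-log, and spheroid viability was recorded.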

[1] = curve of first compound, second compound 0.0316 µM
[2] = curve of first compound, second compound 0.1 µM
[3] = curve of first compound, second compound 0.316 µM
[4] = curve of first compound, second compound 1 µM
[5] = curve of first compound, second compound 3.16 µM
[6] = curve of first compound, second compound 10 µM
[7] = second compound 0.0316 µM, first compound 0.0316 µM
[8] = second compound 0.0316 µM, first compound 0.1 µM
[9] = second compound 0.1 µM, first compound 0.0316 µM
[10] = second compound 0.1 µM, first compound 0.1 µM
[11] = second compound 0.316 µM, first compound 0.0316 µM
[12] = second compound 0.316 µM, first compound 0.1 µM
[13] = second compound 1 µM, first compound 0.0316 µM
[14] = second compound 1 µM, first compound 0.1 µM
[15] = second compound 3.16 µM, first compound 0.0316 µM
[16] = second compound 3.16 µM, first compound 0.1 µM
[17] = second compound 10 µM, first compound 0.0316 µM
[18] = second compound 10 µM, first compound 0.1 µM
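Further: spheroids exposed to agents for 7 days before read-out.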
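Wherever viability, T/C is given: luminescence used as surrogate of cell viability.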

Q: Which results are given for `Cn1ncnc1[C@H]1c2n[nH]c(=O)c3cc(F)cc(c23)N[C@@H]1c1ccc(F)cc1` + CC(Nc1ncnc2nc[nH]c12)c1cc2cccc(Cl)c2c(=O)n1-c1ccccc1?
A: IC50 [1]: > 100 nM; IC50 [2]: > 100 nM; IC50 [3]: > 100 nM; IC50 [4]: > 100 nM; IC50 [5]: > 100 nM; IC50 [6]: > 100 nM; viability, T/C (second compound 0.0316 µM, first compound 0.000316 µM): 111%; viability, T/C (second compound 0.0316 µM, first compound 0.001 µM): 114%; viability, T/C (second compound 0.0316 µM, first compound 0.00316 µM): 90%; viability, T/C (second compound 0.0316 µM, first compound 0.01 µM): 107%; viability, T/C [7]: 84.7%; viability, T/C [8]: 86.7%; viability, T/C (second compound 0.1 µM, first compound 0.000316 µM): 103%; viability, T/C (second compound 0.1 µM, first compound 0.001 µM): 94.2%; viability, T/C (second compound 0.1 µM, first compound 0.00316 µM): 102%; viability, T/C (second compound 0.1 µM, first compound 0.01 µM): 109%; viability, T/C [9]: 93.4%; viability, T/C [10]: 89.5%; viability, T/C (second compound 0.316 µM, first compound 0.000316 µM): 83.5%; viability, T/C (second compound 0.316 µM, first compound 0.001 µM): 96.5%; viability, T/C (second compound 0.316 µM, first compound 0.00316 µM): 78.6%; viability, T/C (second compound 0.316 µM, first compound 0.01 µM): 83.4%; viability, T/C [11]: 102%; viability, T/C [12]: 79.2%; viability, T/C (second compound 1 µM, first compound 0.000316 µM): 122%; viability, T/C (second compound 1 µM, first compound 0.001 µM): 84.7%; viability, T/C (second compound 1 µM, first compound 0.00316 µM): 87.2%; viability, T/C (second compound 1 µM, first compound 0.01 µM): 91.7%; viability, T/C [13]: 108%; viability, T/C [14]: 104%; viability, T/C (second compound 3.16 µM, first compound 0.000316 µM): 73.7%; viability, T/C (second compound 3.16 µM, first compound 0.001 µM): 73.8%; viability, T/C (second compound 3.16 µM, first compound 0.00316 µM): 89.6%; viability, T/C (second compound 3.16 µM, first compound 0.01 µM): 71.1%; viability, T/C [15]: 83.3%; viability, T/C [16]: 87.8%; viability, T/C (second compound 10 µM, first compound 0.000316 µM): 89.5%; viability, T/C (second compound 10 µM, first compound 0.001 µM): 102%; viability, T/C (second compound 10 µM, first compound 0.00316 µM): 81.5%; viability, T/C (second compound 10 µM, first compound 0.01 µM): 76.4%; viability, T/C [17]: 78%; viability, T/C [18]: 73.5%

Q: Which viability, T/C (compound 0.1 µM) does the source give for `C[C@@H](NC(=O)c1ncnc(N)c1Cl)c1ncc(C(=O)Nc2cc(C(F)(F)F)c(Cl)cn2)s1` here?
A: 95.8% [middle of 4 runs]

Q: What about the viability, T/C (compound 0.316 µM) of the same compound?
A: 94% [middle of 4 runs]

Q: And the viability, T/C (compound 1 µM)?
A: 110% [middle of 4 runs]

Q: And the viability, T/C (compound 3.16 µM)?
A: 107% [middle of 4 runs]

Q: What about the viability, T/C (compound 10 µM) of the same compound?
A: 109% [middle of 4 runs]

Q: And the IC50 (curve of compound)?
A: > 10000 nM

Q: Which IC50 [1] does the source give for `Cn1nccc1Nc1nccc(-c2ccn(C(CO)c3ccc(Cl)c(F)c3)c(=O)c2)n1` (stereo not given) + Cc1nc(NC(=O)N2CCCC2C(N)=O)sc1-c1ccnc(C(C)(C)C(F)(F)F)c1 here?
A: > 10000 nM

Q: And the IC50 [2]?
A: > 10000 nM

Q: What about the IC50 [3] of the same compound?
A: > 10000 nM

Q: What about the IC50 [4] of the same compound?
A: > 10000 nM

Q: What about the IC50 [5] of the same compound?
A: > 10000 nM

Q: What about the IC50 [6] of the same compound?
A: < 31.6 nM

Q: What about the viability, T/C [7] of the same compound?
A: 66.3%

Q: What about the viability, T/C [8] of the same compound?
A: 104%

Q: And the viability, T/C (second compound 0.0316 µM, first compound 0.316 µM)?
A: 97.2%

Q: And the viability, T/C (second compound 0.0316 µM, first compound 1 µM)?
A: 83.5%

Q: And the viability, T/C (second compound 0.0316 µM, first compound 3.16 µM)?
A: 87.3%

Q: What about the viability, T/C (second compound 0.0316 µM, first compound 10 µM) of the same compound?
A: 85.7%

Q: What about the viability, T/C [9] of the same compound?
A: 70.2%

Q: And the viability, T/C [10]?
A: 67%

Q: What about the viability, T/C (second compound 0.1 µM, first compound 0.316 µM) of the same compound?
A: 85.1%

Q: What about the viability, T/C (second compound 0.1 µM, first compound 1 µM) of the same compound?
A: 76.7%

Q: And the viability, T/C (second compound 0.1 µM, first compound 3.16 µM)?
A: 72.4%

Q: What about the viability, T/C (second compound 0.1 µM, first compound 10 µM) of the same compound?
A: 75.5%

Q: And the viability, T/C [11]?
A: 65.4%

Q: What about the viability, T/C [12] of the same compound?
A: 70.9%

Q: What about the viability, T/C (second compound 0.316 µM, first compound 0.316 µM) of the same compound?
A: 63.8%

Q: What about the viability, T/C (second compound 0.316 µM, first compound 1 µM) of the same compound?
A: 82%

Q: What about the viability, T/C (second compound 0.316 µM, first compound 3.16 µM) of the same compound?
A: 84.2%

Q: What about the viability, T/C (second compound 0.316 µM, first compound 10 µM) of the same compound?
A: 60.7%

Q: And the viability, T/C [13]?
A: 66.6%

Q: And the viability, T/C [14]?
A: 61%

Q: And the viability, T/C (second compound 1 µM, first compound 0.316 µM)?
A: 60.1%

Q: And the viability, T/C (second compound 1 µM, first compound 1 µM)?
A: 67.8%

Q: And the viability, T/C (second compound 1 µM, first compound 3.16 µM)?
A: 64.7%

Q: And the viability, T/C (second compound 1 µM, first compound 10 µM)?
A: 53.5%

Q: And the viability, T/C [15]?
A: 46.1%

Q: What about the viability, T/C [16] of the same compound?
A: 61.4%

Q: And the viability, T/C (second compound 3.16 µM, first compound 0.316 µM)?
A: 56.3%

Q: And the viability, T/C (second compound 3.16 µM, first compound 1 µM)?
A: 58.5%

Q: What about the viability, T/C (second compound 3.16 µM, first compound 3.16 µM) of the same compound?
A: 60.8%

Q: And the viability, T/C (second compound 3.16 µM, first compound 10 µM)?
A: 77.1%

Q: And the viability, T/C [17]?
A: 39.9%

Q: What about the viability, T/C [18] of the same compound?
A: 47.6%

Q: And the viability, T/C (second compound 10 µM, first compound 0.316 µM)?
A: 42.2%

Q: And the viability, T/C (second compound 10 µM, first compound 1 µM)?
A: 36.1%

Q: And the viability, T/C (second compound 10 µM, first compound 3.16 µM)?
A: 53.7%

Q: What about the viability, T/C (second compound 10 µM, first compound 10 µM) of the same compound?
A: 32.3%
